Experimental data from patent publication US8604048B2, “Pyridocarbazole type compounds and applications thereof” (Centre National de la Recherche Scientifique, priority 2009, dated 2013).

How the values were obtained:
MCF-7 cells = assay: Cell growth test (MTT), MCF-7; type: cell-based; conditions: Homo sapiens, MCF7; MCF-7, MTT test after 48 h; read-out: IC50 (concentration necessary to inhibit 50% of cell growth)
Experimental: (§1) The cell growth tests are carried out in transparent 96-well microplates (Greiner) after having seeded 100 μl/well of a cell solution having 2·10^5 cells/ml to 5·10^5 cells/ml (depending on the cell lines). After incubating for 24 h at 37° C. with 5% CO2, the culture medium is removed and replaced with solutions of the molecule to be tested at various concentrations. The cells are incubated with these molecules for an additional 48 h at 37° C. with 5% CO2. After elimination of the medium, the cells are washed with blank RPMI (Gibco, Invitrogen) then incubated with 3-(4,5-dimethylthiazol-2-yl)-2,5-diphenyltetrazolium bromide or MTT (0.5 mg/ml final concentration) for 4 h at 37° C. with 5% CO2. MTT (Sigma Aldrich) makes it possible to estimate the viability of the cells by measuring the activity of a mitochondrial enzyme. Indeed, in living cells, mitochondrial dehydrogenases are capable of cleaving the tetrazolium ring, thus leading to the formation of formazan crystals that are insoluble in an aqueous medium. These crystals are dissolved with the addition of a solubilizing solution (isopropanol, 10% Triton X100, 0.1 N HCl). After stirring, the absorbance is measured at 570 nm using the FLUOstar OPTIMA microplate reader. […]
(§2) The viability of the cells was evaluated using an MTT test after 48 h of exposure with various concentrations of molecules (from 100 μM to 0.001 μM). […]

MES-SA cells = assay: Cell growth test (MTT), MES-SA; type: cell-based; conditions: Homo sapiens, MTT test after 48 h, read-out: IC50 (concentration necessary to inhibit 50% of cell growth)
Experimental: as §1, §2

recombinant human LIMK1 = molecular target: T1, recombinant human LIMK1 (Homo sapiens, UniProt P53667); assay: LIMK1 inhibition reversibility assay (size-exclusion chromatography); type: biochemical; conditions: 2 μM compound, input vs flow-through after size-exclusion chromatography
T1 construct: 6His (N); purchased Millipore 14-656
T1 sequence (P53667 whole entry): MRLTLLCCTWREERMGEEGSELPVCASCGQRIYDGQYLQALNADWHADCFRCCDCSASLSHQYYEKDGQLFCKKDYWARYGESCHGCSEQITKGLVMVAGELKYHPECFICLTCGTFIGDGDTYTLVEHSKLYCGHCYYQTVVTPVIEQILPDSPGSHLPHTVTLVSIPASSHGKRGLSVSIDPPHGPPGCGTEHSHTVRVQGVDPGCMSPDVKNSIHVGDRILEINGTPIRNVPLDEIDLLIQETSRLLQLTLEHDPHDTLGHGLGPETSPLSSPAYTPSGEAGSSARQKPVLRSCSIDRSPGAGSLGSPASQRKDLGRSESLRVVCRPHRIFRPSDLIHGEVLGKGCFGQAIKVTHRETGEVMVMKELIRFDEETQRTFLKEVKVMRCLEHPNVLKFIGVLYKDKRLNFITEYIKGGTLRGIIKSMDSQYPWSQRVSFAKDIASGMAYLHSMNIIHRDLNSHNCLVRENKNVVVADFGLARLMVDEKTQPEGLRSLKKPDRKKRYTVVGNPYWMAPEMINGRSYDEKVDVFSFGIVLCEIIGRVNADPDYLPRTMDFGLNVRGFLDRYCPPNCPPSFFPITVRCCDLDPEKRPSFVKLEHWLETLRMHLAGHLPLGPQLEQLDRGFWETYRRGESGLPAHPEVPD
Experimental: N-terminal 6H s-tagged recombinant human LIMK1 (Millipore #14-656, 62.5 ng) was incubated with […] Compound 1 (or equivalent amount of DMSO) for 10 minutes at 4° C. in a final volume of 100 μL. Size-exclusion chromatography of this mixture was then performed using 1 ml Biospin P-6 column (Biorad, equilibrated in 20 mM MOPS pH=7.0, 1 mM EDTA, 0.01% NP-40, 5% glycerol, 0.1% β-mercaptoethanol, 1 mg·ml^−1 Bovine Serum Albumin). LIMK1 kinase activity in input and flow-through were then assayed by radiometric LIMK1 kinase assay.
LIMK1 inhibition reversibility was assayed in vitro, in the conditions of Example 2, in the presence of 2 μM Compound 1 (H06), prior (‘input’) or after size-exclusion chromatography (‘flow-through’). Error bars represent standard error mean.

HeLa cells = assay: Cell growth test (MTT), HeLa; type: cell-based; conditions: Homo sapiens, MTT test after 48 h, read-out: IC50 (concentration necessary to inhibit 50% of cell growth)
Experimental: as §1, §2

[1] = tested on: microtubules of HeLa cells; assay: Stability of the microtubules in cells, qualitative double-blind evaluation using a microscope; type: cell-based, Human; conditions: general statement
Experimental: 6. a step of analysis of the effect of the compound to be tested on the dynamics of the microtubule network. For this, HeLa cells are incubated for 2 h with the compound to be tested, then optionally treated with 10 μM nocodazole for 30 minutes.
Cells grown for two days on glass coverslips, were incubated 3 minutes at 37° C. with or without OPT buffer (Pipes 80 mM, EGTA 1 mM, MgCl 1 mM, Triton X-100 0.5% and glycerol 10% pH 6.8), and then fixed in methanol previously maintained at −20° C. for 10 minutes. The cells are then washed with PBS/0.1% Tween® 20 and incubated for 15 minutes minimum at room temperature with the appropriate primary antibodies (cf. the antibodies from Table III) diluted in a solution of PBS/0.3% BSA/0.02% NaN3. The cells are then washed 3 times with PBS/0.1% Tween® 20. They are incubated for 15 minutes at room temperature with a solution of secondary antibodies (cf. the antibodies from Table IV) and of Hoechst at a final concentration of 1 μg/ml, diluted in PBS/0.3% BSA/0.02% NaN3. […]
HeLa cells are seeded in black-bottomed black 96-well microplates (Greiner 655086) by distributing 90 μl per well of a cell solution containing 40 000 cells/ml, and incubated at 37° C. with 5% CO2. […] The various fluorescence intensities are measured using the FLUOstar OPTIMA reader. […]

Question: What does the source list for `Cc1c2cc[nH]c(=O)c2c(C)c2c1[nH]c1ccc(OC(=O)c3ccccc3)cc12` [Compound 1, 9-benzoyloxy-5,11-dimethyl-2H,6H-pyrido[4,3-b]carbazol-1-one]?
Answer: IC50 (MCF-7 cells): 62.2 µM; IC50 (MES-SA cells): 26 µM; Reversibility of LIMK1 inhibition in vitro (recombinant human LIMK1): reversible; IC50 (HeLa cells): 1210 nM

Question: How did the “Effect on the stabilization of cell microtubules” value [1] turn out when `Cc1c2ccncc2c(C)c2c1[nH]c1ccccc12` [ellipticine] was run?
Answer: does not have any effect
